Results published in PubChem BioAssay (NCI).
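Exposure lasted 48 hours, with cells grown in 96-well plates and compounds tested at five concentrations. GI50 is the concentration that inhibits growth by half. TGI is the concentration that stops growth completely.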

What was measured:
Experiment in all cases: NCI anticancer screen, dose series, 48 h
[1] = test system: 786-0 renal
[2] = test system: A498 renal
[3] = test system: A549 NSCLC
[4] = test system: ACHN renal
[5] = test system: BT-549 breast
[6] = test system: CAKI-1 renal
[7] = test system: CCRF-CEM leukemia
[8] = test system: COLO 205 colon
[9] = test system: DU-145 prostate
[10] = test system: EKVX NSCLC
[11] = test system: HCC-2998 colon
[12] = test system: HCT-116 colon
[13] = test system: HCT-15 colon
[14] = test system: HL-60(TB) leukemia
[15] = test system: HOP-62 NSCLC
[16] = test system: HOP-92 NSCLC
[17] = test system: HS 578T breast
[18] = test system: HT29 colon
[19] = test system: IGROV1 ovarian
[20] = test system: K-562 leukemia
[21] = test system: KM12 colon
[22] = test system: LOX IMVI melanoma
[23] = test system: M14 melanoma
[24] = test system: MALME-3M melanoma
[25] = test system: MCF7 breast
[26] = test system: MDA-MB-231 breast
[27] = test system: MDA-MB-435
[28] = test system: MDA-MB-468 breast
[29] = test system: MOLT-4 leukemia
[30] = test system: NCI-H226 lung
[31] = test system: NCI-H23 lung
[32] = test system: NCI-H460 lung
[33] = test system: NCI-H522 lung
[34] = test system: NCI/ADR-RES ovarian
[35] = test system: OVCAR-3 ovarian
[36] = test system: OVCAR-4 ovarian
[37] = test system: OVCAR-5 ovarian
[38] = test system: OVCAR-8 ovarian
[39] = test system: PC-3 prostate
[40] = test system: RPMI-8226 leukemia
[41] = test system: RXF 393 renal
[42] = test system: SF-268 CNS
[43] = test system: SF-295 CNS
[44] = test system: SF-539 CNS
[45] = test system: SK-MEL-2 melanoma
[46] = test system: SK-MEL-28 melanoma
[47] = test system: SK-MEL-5 melanoma
[48] = test system: SK-OV-3 ovarian
[49] = test system: SN12C renal
[50] = test system: SNB-19 CNS
[51] = test system: SNB-75 CNS
[52] = test system: SR leukemia
[53] = test system: SW-620 colon
[54] = test system: T-47D breast
[55] = test system: TK-10 renal
[56] = test system: U251 CNS
[57] = test system: UACC-257 melanoma
[58] = test system: UACC-62 melanoma
[59] = test system: UO-31 renal

Cc1ccc(C(=O)C(c2c[nH]c3ccccc23)c2c[nH]c3ccccc23)cc1
GI50 [1]: 12.9 µM | TGI [1]: 29.1 µM | GI50 [2]: 20.5 µM | TGI [2]: 35.9 µM | GI50 [3]: 15 µM | TGI [3]: 33.1 µM | GI50 [4]: 10.9 µM | TGI [4]: 22.8 µM | GI50 [5]: 12.8 µM | TGI [5]: 26.5 µM | GI50 [6]: 9.39 µM | TGI [6]: 21.4 µM | GI50 [7]: 3.02 µM | TGI [7]: > 100 µM | GI50 [8]: 17.1 µM | TGI [8]: 33 µM | GI50 [9]: 14.4 µM | TGI [9]: 27.8 µM | GI50 [10]: 13.7 µM | TGI [10]: 27 µM | GI50 [11]: 13.7 µM | TGI [11]: 27 µM | GI50 [12]: 3.76 µM | TGI [12]: 15.2 µM | GI50 [13]: 4.73 µM | TGI [13]: 17.6 µM | GI50 [14]: 6.82 µM | TGI [14]: 38.2 µM | GI50 [15]: 18 µM | TGI [15]: 42.1 µM | GI50 [16]: 16.3 µM | TGI [16]: 33.3 µM | GI50 [17]: 16.6 µM | TGI [17]: 47.1 µM | GI50 [18]: 6.98 µM | TGI [18]: 22.1 µM | GI50 [19]: 11.7 µM | TGI [19]: 26.5 µM | GI50 [20]: 3.88 µM | TGI [20]: > 100 µM | GI50 [21]: 16.7 µM | TGI [21]: 31.1 µM | GI50 [22]: 3.21 µM | TGI [22]: 13.8 µM | GI50 [23]: 12.6 µM | TGI [23]: 29.1 µM | GI50 [24]: 16 µM | TGI [24]: 31.2 µM | GI50 [25]: 3.77 µM | TGI [25]: 15.7 µM | GI50 [26]: 14.1 µM | TGI [26]: 31 µM | GI50 [27]: 15.1 µM | TGI [27]: 29.7 µM | GI50 [28]: 14.1 µM | TGI [28]: 29 µM | GI50 [29]: 3.95 µM | TGI [29]: 80.4 µM | GI50 [30]: 13.8 µM | TGI [30]: 29.4 µM | GI50 [31]: 11.5 µM | TGI [31]: 25.9 µM | GI50 [32]: 11.2 µM | TGI [32]: 28.7 µM | GI50 [33]: 10.7 µM | TGI [33]: 24.1 µM | GI50 [34]: 13.1 µM | TGI [34]: 32.2 µM | GI50 [35]: 11.3 µM | TGI [35]: 23.6 µM | GI50 [36]: 13.2 µM | TGI [36]: 28.2 µM | GI50 [37]: 14.7 µM | TGI [37]: 29 µM | GI50 [38]: 16.7 µM | TGI [38]: 34.1 µM | GI50 [39]: 6.96 µM | TGI [39]: 28.3 µM | GI50 [40]: 8.31 µM | TGI [40]: > 100 µM | GI50 [41]: 12.5 µM | TGI [41]: 29.6 µM | GI50 [42]: 10.6 µM | TGI [42]: 25.4 µM | GI50 [43]: 14.8 µM | TGI [43]: 28.1 µM | GI50 [44]: 15.2 µM | TGI [44]: 29 µM | GI50 [45]: 14.5 µM | TGI [45]: 28.7 µM | GI50 [46]: 14.5 µM | TGI [46]: 28.1 µM | GI50 [47]: 15.5 µM | TGI [47]: 29.2 µM | GI50 [48]: 15.9 µM | TGI [48]: 33 µM | GI50 [49]: 11.1 µM | TGI [49]: 24.2 µM | GI50 [50]: 16.9 µM | TGI [50]: 31.4 µM | GI50 [51]: 7.91 µM | TGI [51]: 21 µM | GI50 [52]: 11 µM | TGI [52]: 77.6 µM | GI50 [53]: 3.55 µM | TGI [53]: 13.5 µM | GI50 [54]: 9.57 µM | TGI [54]: 28.4 µM | GI50 [55]: 24.8 µM | TGI [55]: 40.6 µM | GI50 [56]: 15.9 µM | TGI [56]: 30.9 µM | GI50 [57]: 13.2 µM | TGI [57]: 26.8 µM | GI50 [58]: 13.9 µM | TGI [58]: 27.9 µM | GI50 [59]: 11.3 µM | TGI [59]: 23.4 µM
